Source: ChEMBL document CHEMBL1201862, “PubChem BioAssay data set” (2004)
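Where inhibition never reached the appropriate level, the endpoint shown equals the highest concentration tested. Otherwise, values were interpolated linearly from a five-concentration, 48-hour dose response in 96-well plates. Abbreviation: GI50, concentration required for 50% inhibition of growth.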 The source made the active and inactive calls. Cut-off read from the data, not from the text of the source: active = GI50 up to about 1.1 µM and inactive = higher.

Tests used:
Assay in all cases: NCI tumour cell line growth inhibition, 48 h
[1] = tested on: 786-0
[2] = tested on: EKVX
[3] = tested on: HCT-116
[4] = tested on: HOP-62
[5] = tested on: HOP-92
[6] = tested on: K562
[7] = tested on: KM12
[8] = tested on: LOX IMVI
[9] = tested on: MCF7
[10] = tested on: MDA-N
[11] = tested on: OVCAR-3
[12] = tested on: OVCAR-5
[13] = tested on: PC-3
[14] = tested on: SF-539
[15] = tested on: SK-MEL-28
[16] = tested on: SW-620
[17] = tested on: T47D
[18] = tested on: TK-10
[19] = tested on: UO-31
[20] = tested on: HT-29

Row | Compound | GI50 [1] | GI50 [2] | GI50 [3] | GI50 [4] | GI50 [5] | GI50 [6] | GI50 [7] | GI50 [8] | GI50 [9] | GI50 [10] | GI50 [11] | GI50 [12] | GI50 [13] | GI50 [14] | GI50 [15] | GI50 [16] | GI50 [17] | GI50 [18] | GI50 [19] | GI50 [20]
1 | CCOC(=O)c1c(N2CCCC2)[nH]c(=O)c(C(c2ccc(Cl)c([N+](=O)[O-])c2)c2c(O)c(C(=O)OCC)c(N3CCCC3)[nH]c2=O)c1O | 27.2 µM (inactive) | 33.7 µM (inactive) | 34 µM (inactive) | 27.4 µM (inactive) | 18.5 µM (inactive) | 63.2 µM (inactive) | > 100 µM (inactive) | 19.3 µM (inactive) | 28.6 µM (inactive) | 24.5 µM (inactive) | 29.9 µM (inactive) | 30.2 µM (inactive) | 28.1 µM (inactive) | 19.2 µM (inactive) | 35.3 µM (inactive) | 33.3 µM (inactive) | 28.1 µM (inactive) | 19.2 µM (inactive) | 24.7 µM (inactive) | –
2 | Cc1ccc(/C=N/NC2=NCCN2)s1 | > 100 µM (inactive) | > 100 µM (inactive) | > 100 µM (inactive) | > 100 µM (inactive) | > 100 µM (inactive) | 41 µM (inactive) | > 100 µM (inactive) | > 100 µM (inactive) | > 100 µM (inactive) | > 100 µM (inactive) | > 100 µM (inactive) | > 100 µM (inactive) | > 100 µM (inactive) | > 100 µM (inactive) | > 100 µM (inactive) | > 100 µM (inactive) | > 100 µM (inactive) | > 100 µM (inactive) | 44.9 µM (inactive) | > 100 µM (inactive)
3 | CN(Cc1cnc2nc(N)nc(N)c2n1)c1ccc(C(=O)NCCCC(=O)O)cc1 | 12.5 µM (inactive) | > 29 µM (inactive) | 3.39 µM (inactive) | 58.6 µM (inactive) | > 100 µM (inactive) | 1.2 µM (inactive) | 8.38 µM (inactive) | 4 µM (inactive) | 5.02 µM (inactive) | 7.57 µM (inactive) | > 93.5 µM (inactive) | > 100 µM (inactive) | 0.773 µM (active) | 8.75 µM (inactive) | > 100 µM (inactive) | 5.7 µM (inactive) | > 100 µM (inactive) | > 69 µM (inactive) | 17.5 µM (inactive) | > 100 µM (inactive)
4 | CSc1nc(=S)[nH]c2c1c(C)nn2-c1ccccc1 | 24.3 µM (inactive) | 18.1 µM (inactive) | 17.8 µM (inactive) | 41.7 µM (inactive) | 7.1 µM (inactive) | 16.6 µM (inactive) | – | 15.7 µM (inactive) | 17.8 µM (inactive) | 24.8 µM (inactive) | 35.5 µM (inactive) | 51.1 µM (inactive) | 25.7 µM (inactive) | 28.1 µM (inactive) | 38.8 µM (inactive) | 34.5 µM (inactive) | 19.1 µM (inactive) | 24.4 µM (inactive) | 22 µM (inactive) | 28.5 µM (inactive)
5 | Nc1ncc(N)c(NCC2(CO)CC(CCc3ccccc3)C2)n1 (stereo not drawn) | 8.47 µM (inactive) | 8.47 µM (inactive) | 6.55 µM (inactive) | 14.7 µM (inactive) | 3.39 µM (inactive) | 2.12 µM (inactive) | 10 µM (inactive) | 3.46 µM (inactive) | 3.37 µM (inactive) | 8.28 µM (inactive) | 2.26 µM (inactive) | 14.7 µM (inactive) | 5.89 µM (inactive) | 2.7 µM (inactive) | 14.4 µM (inactive) | 9.98 µM (inactive) | 1.11 µM (active) | 12.5 µM (inactive) | 1.19 µM (inactive) | 6.21 µM (inactive)
